This is an account of results in US20260000686A1, “CANNABIDIOL COMPOSITIONS FOR THE TREATMENT OF INFLAMMATION” (RevRx, LLC, priority 2019, published 2026).

This assay has as its system patient (joint, muscle, and arthritic aches and pains). Put plainly: Case studies: patient-reported pain relief with topical Cryogel and with previously tried treatments. It is filed as in vivo, human.
[1] abbreviates: Case #19: bilateral inflammation of the knees post exercise/running.
[2] abbreviates: Case #2: chronic knee pain and muscle soreness.
The mark [3] stands for this setting: Case #7: chronic lower back pain, history of RA.
Where [4] appears, read: Case #8: diabetic, peripheral neuropathy pain in feet.
Where [5] appears, read: Case #21: inflammation of the right knee.

SMILES strings stand for the structures.

Take `COc1ccc2cc([C@H](C)C(=O)[O-])ccc2c1.[Na+]` [ALEVER]: the “relief from previously tried treatment (patient-reported)” value (“relief from previously tried treatment” below) (Case #5: sore/stiff neck) was “limited relief”.
In the case of `Cc1ccc(-c2cc(C(F)(F)F)nn2-c2ccc(S(N)(=O)=O)cc2)cc1` [Celebrex], the “relief from previously tried treatment” value under setting [1] was “Limited Relief”.
Turning to `CC(C)Cc1ccc(C(C)C(=O)O)cc1` (stereo not shown) [Ibuprofen], the “relief from previously tried treatment” value is recorded as “mild pain relief” under setting [2]; “minimal relief” (Case #4: chronic knee pain and muscle soreness); “limit pain relief” under setting [3]; “limit pain relief” under setting [4]; “no relief” (Case #9: quad pain associated with exercise); “No relief” (Case #10: Tennis Elbow of the right elbow). For the same molecule, the “relief from previously tried treatment” value is, setting by setting: (Case #11: upper left trapezius muscle pain) “No relief”; (Case #14: right calf muscle pain) “limited relief”; (Case #15: ankle swelling and soreness) “limited relief”; (Case #16: labrum tear post-surgical repair, pain and soreness) “limited relief”; (Case #17: sciatica nerve pain, upper right hip area) “limited relief”; (Case #18: burning, stinging pain and inflammation in upper right elbow) “limited relief”. Further, the “relief from previously tried treatment” value by setting is: under setting [1], “limited relief”; under setting [5], “Limited Relief”.
For `CC(C)C[C@H](CN)CC(=O)O` [LYRICA®], the “relief from previously tried treatment” value under setting [4] is listed as “limit pain relief”.
For `COc1ccc2cc([C@H](C)C(=O)O)ccc2c1` [Naproxen], the “relief from previously tried treatment” value was “mild pain relief” under setting [2]; “limit pain relief” under setting [3]; “limited relief” (Case #13: quadricep tear or strain, right leg muscle pain).
The molecule `COc1ccc2c3c1O[C@H]1C(=O)CC[C@@]4(O)[C@@H](C2)N(C)CC[C@]314.Cl` [OxyContin®] displayed a pain score (Case #1: RA, spinal fusion C3-C4, immediately post-op while taking prescription pain management medication, 1 no-pain, 10 most pain) of 10.
In the case of `Clc1ccc2nsnc2c1NC1=NCCN1` [Tizanidine], the “relief from previously tried treatment” value under setting [3] was “limit pain relief”.
The same measure, in the same setting: the result for `COc1cccc(C2(O)CCCCC2CN(C)C)c1` (stereo not shown) [Tramadol] reads “limit pain relief”.
In the case of `CC(=O)Nc1ccc(O)cc1` [Tylenol], the “relief from previously tried treatment” value is, setting by setting: under setting [1], “Limited relief”; under setting [5], “No relief”.
